Data published in patent US20080119412A1, “Polypeptides for Modulating Binding of Trp Channel Proteins and Trp- Associated Proteins” (NoNO Inc., priority 2003, published 2008).
Residues, ends and D or L forms follow the SMILES beside them. No end group written: not given here. *: point of attachment. Biotin = O=C1N[C@H]2[C@H](CS[C@H]2CCCCC(=O)*)N1

Experiments:
INADL d3 = target: T1, INADL d3 (Homo sapiens, UniProt Q8NI35); test: G3 assay titration, GST-PDZ fusion / biotinylated peptide; format: binding
T1 construct: made in house; host or cells: E. coli (DH5alpha, BL21 or JM109)
T1 sequence (Q8NI35 with tags, fused parts or gaps): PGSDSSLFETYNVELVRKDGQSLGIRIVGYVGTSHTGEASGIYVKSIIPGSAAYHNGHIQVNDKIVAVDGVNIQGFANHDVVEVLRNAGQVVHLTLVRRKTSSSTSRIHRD
Experimental: (§1) The G3 assay is identical to the G0 assay with the following exceptions. The peptides are typically present at 0.1 μM rather than 20 μM. The peptides are also pre-incubated with the HRP-streptavidin prior to adding to the assay plate. In the G0 assay, free peptide is incubated with the PDZ proteins prior to the addition of the HRP-streptavidin. Thus, for the G0 assay one can lose signal if the bound peptide dissociates from the PDZ protein prior to the addition of the HRP-streptavidin. In the G3 modified assay the HRP-streptavidin/peptide complex is added to the plate in one step, thus increasing the likelihood that all the bound peptide will be bound to HRP-streptavidin. The G3 modified assay increases the chance of observing weak interactions.
(§2) This example describes assays to identify binding between TRPM7 and PDZ domains. GST-PDZ fusions are produced that each contain an entire PDZ domain (or multiple PDZ domains), the collection encompassing approximately 90% of all PDZ domains identified in the human genome. (See Table 5 and Section V (PDZ Proteins and PL Protein Interactions Disclosure). Biotinylated peptide corresponding to 11 residues of Tat coupled to the C-terminal 9 amino acids of TRPM7 ([…]; SEQ ID NO:258) is synthesized and purified by HPLC.
(§3) • Nunc MaxiSorp 96 well Immuno-plate, Nunc • PBS pH 7.4 (phosphate buffered saline, 8 g NaCl, 0.29 g KCl, 1.44 g Na2HPO4, 0.24 g KH2PO4, add H2O to 1 liter and pH 7.4; 0.2 μm filter) • Assay Buffer: 2% BSA in PBS (20 g of bovine serum albumin per liter PBS, fraction V, ICN Biomedicals, cat#IC15142983 • Goat anti-GST polyclonal Ab, stock 5 mg/ml, stored at 4° C., Amersham Pharmacia cat#27-4577-01 • Dilute 1:1000 in PBS, final concentration 5 μg/ml. • HRP-Streptavidin, 2.5 mg/2 ml stock stored at 4° C., Zymed cat#43-4323, dilute 1:2000 into Assay buffer, final concentration of […] • Wash Buffer, PBS • Biotinylated peptides (HPLC purified, stock solution stored in −20° C. freezer) • GST-PRISM proteins (stock stored at −80° C., after 1st thaw store in −10° C. freezer) • TMB (3,3′,5,5′, teramethylbensidine), tablets, Sigma cat.#T5525 • Per plate, dissolve 1 tablet in 1 ml DMSO, add 9 ml Citrate/Phosphate buffer pH 5.4 and 2 μL H2O2 • 0.1 M H2SO4, Sigma cat.#S1526 • 12-w multichannel pipettor & tips • 50 ml reagent reservoirs, Costar#4870 • 50, 15 ml polypropylene conical tubes • Costar Transtar 96 Costar #7605 • Transtar 96 Cartridge Costar #7610 • Molecular Devices microplate reader (450 & 650 nm filters) with SoftMax Pro software *When using reagents stored at or 4° C. or −20° C., remove & keep on ice
(§4) • 1. Coat plate with 100 μl of 5 μg/ml anti-GST, overnight at 4° C. • 2. Dump contents of plate & out tap dry on paper towels • 3. Block with 200 μl Assay Buffer for 2 hrs at room temperature • 4. Prepare proteins at 5 μg/ml in Assay Buffer • 5. Wash 3× with cold PBS (4° C.), avoiding letting the plates dry out • 6. Add proteins at 50 μl per well, incubate 1 to 2 hrs at 4° C. • 7. Prepare peptides to desired concentration in Assay Buffer • 8. Wash 3× with cold PBS (4° C.), avoiding letting the plates dry out • 9. Add HRP-Streptavidin/peptide complex [prepared by incubating for 20 minutes at room temperature HRP-Streptavidin (1:2000) with the desired biotin-peptide concentration for 20 minutes at room temperature] at 50 μl per well on ice • 10. Place at room temperature for exactly 30 minutes • 11. Promptly wash 5× with PBS at room temperature • 12. Add 100 μl/well TMB substrate (write time on plate) • 13. Incubate in dark at room temperature for a maximum of 30 minutes • 14. Read plate at 25 minutes (650 nm), optional • 15. Stop reaction with 100 μl of 0.18 M H2SO4, 30 minutes after adding TMB • Take last reading at 450 nm soon after stopping reaction
(§5) The G3 assay was performed using 0.1 μM peptide representing 11 amino acids of Tat fused to the final 9 amino acids of TRPM7 ([…]; SEQ ID NO:258). […]

ZO-1 d2 = target: T2, ZO-1 d2 (Homo sapiens, UniProt Q07157, DEL264-264); test: as above; format: binding
T2 construct: made in house; host or cells: E. coli (DH5alpha, BL21 or JM109)
T2 sequence (Q07157 with tags, fused parts or gaps DEL264-264): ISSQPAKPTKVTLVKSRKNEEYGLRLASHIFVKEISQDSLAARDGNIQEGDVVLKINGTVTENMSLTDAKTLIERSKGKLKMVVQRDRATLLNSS
Experimental: as §1, §2, §3, §4, §5

CC(C)C[C@H](NC(=O)[C@H](CCCNC(=N)N)NC(=O)[C@@H](NC(=O)CNC(=O)[C@H](CCCNC(=N)N)NC(=O)[C@H](C)NC(=O)[C@H](CCCNC(=N)N)NC(=O)[C@H](CCCNC(=N)N)NC(=O)[C@H](CCCNC(=N)N)NC(=O)[C@H](CCC(N)=O)NC(=O)[C@H](CCCNC(=N)N)NC(=O)[C@H](CCCNC(=N)N)NC(=O)[C@H](CCCCN)NC(=O)[C@H](CCCCN)NC(=O)[C@H](CCCNC(=N)N)NC(=O)CNC(=O)[C@H](Cc1ccc(O)cc1)NC(=O)CCCC[C@@H]1SC[C@@H]2NC(=O)N[C@@H]21)[C@@H](C)O)C(=O)N[C@H](C(=O)N[C@@H](Cc1c[nH]c2ccccc12)C(=O)N[C@H](C(=O)O)C(C)C)C(C)C [Peptide 1844] (Biotin-YGRKKRRQRRRARGTRLVWV-OH)
EC50 (INADL d3): < 20 nM | EC50 (ZO-1 d2): < 20 nM

CC[C@H](C)[C@H](NC(=O)[C@@H](NC(=O)[C@H](CCCNC(=N)N)NC(=O)[C@H](CC(=O)O)NC(=O)CNC(=O)[C@H](CCCNC(=N)N)NC(=O)[C@H](C)NC(=O)[C@H](CCCNC(=N)N)NC(=O)[C@H](CCCNC(=N)N)NC(=O)[C@H](CCCNC(=N)N)NC(=O)[C@H](CCC(N)=O)NC(=O)[C@H](CCCNC(=N)N)NC(=O)[C@H](CCCNC(=N)N)NC(=O)[C@H](CCCCN)NC(=O)[C@H](CCCCN)NC(=O)[C@H](CCCNC(=N)N)NC(=O)CNC(=O)[C@H](Cc1ccc(O)cc1)NC(=O)CCCC[C@@H]1SC[C@@H]2NC(=O)N[C@@H]21)[C@@H](C)O)C(=O)N[C@H](C(=O)N[C@@H](Cc1ccc(O)cc1)C(=O)O)[C@@H](C)CC [Peptide 1848] (Biotin-YGRKKRRQRRRARGDRTIIY-OH)
EC50 (INADL d3): < 2000 nM | EC50 (ZO-1 d2): < 20 nM

CC[C@H](C)[C@H](NC(=O)[C@@H](NC(=O)[C@H](CCCNC(=N)N)NC(=O)[C@H](CC(=O)O)NC(=O)[C@H](CO)NC(=O)[C@H](CCCNC(=N)N)NC(=O)[C@H](C)NC(=O)[C@H](CCCNC(=N)N)NC(=O)[C@H](CCCNC(=N)N)NC(=O)[C@H](CCCNC(=N)N)NC(=O)[C@H](CCC(N)=O)NC(=O)[C@H](CCCNC(=N)N)NC(=O)[C@H](CCCNC(=N)N)NC(=O)[C@H](CCCCN)NC(=O)[C@H](CCCCN)NC(=O)[C@H](CCCNC(=N)N)NC(=O)CNC(=O)[C@H](Cc1ccc(O)cc1)NC(=O)CCCC[C@@H]1SC[C@@H]2NC(=O)N[C@@H]21)[C@@H](C)O)C(=O)N[C@H](C(=O)N[C@@H](C)C(=O)O)[C@@H](C)CC [Peptide 1830] (Biotin-YGRKKRRQRRRARSDRTIIA-OH)
EC50 (INADL d3): < 2000 nM | EC50 (ZO-1 d2): < 20 nM

CC[C@H](C)[C@H](NC(=O)[C@H](Cc1ccc(O)cc1)NC(=O)[C@H](CCCCN)NC(=O)[C@H](CCCNC(=N)N)NC(=O)[C@H](CC(=O)O)NC(=O)CNC(=O)[C@H](CCCNC(=N)N)NC(=O)[C@H](C)NC(=O)[C@H](CCCNC(=N)N)NC(=O)[C@H](CCCNC(=N)N)NC(=O)[C@H](CCCNC(=N)N)NC(=O)[C@H](CCC(N)=O)NC(=O)[C@H](CCCNC(=N)N)NC(=O)[C@H](CCCNC(=N)N)NC(=O)[C@H](CCCCN)NC(=O)[C@H](CCCCN)NC(=O)[C@H](CCCNC(=N)N)NC(=O)CNC(=O)[C@H](Cc1ccc(O)cc1)NC(=O)CCCC[C@@H]1SC[C@@H]2NC(=O)N[C@@H]21)C(=O)N[C@H](C(=O)O)C(C)C [Peptide 1838] (Biotin-YGRKKRRQRRRARGDRKYIV-OH)
EC50 (INADL d3): < 100 nM | EC50 (ZO-1 d2): < 100 nM

Biotin-YGRKKRRQRRRSRTDRLEYV [Peptide 1846]
ODmax (450 nm) (INADL d3; Table 10, titration of peptides with INADL d3): 1.50

CC(C)[C@H](NC(=O)[C@@H]1CCCN1C(=O)[C@@H](NC(=O)[C@H](CCCCN)NC(=O)[C@H](CCCNC(=N)N)NC(=O)[C@H](CC(=O)O)NC(=O)CNC(=O)[C@H](CCCNC(=N)N)NC(=O)[C@H](C)NC(=O)[C@H](CCCNC(=N)N)NC(=O)[C@H](CCCNC(=N)N)NC(=O)[C@H](CCCNC(=N)N)NC(=O)[C@H](CCC(N)=O)NC(=O)[C@H](CCCNC(=N)N)NC(=O)[C@H](CCCNC(=N)N)NC(=O)[C@H](CCCCN)NC(=O)[C@H](CCCCN)NC(=O)[C@H](CCCNC(=N)N)NC(=O)CNC(=O)[C@H](Cc1ccc(O)cc1)NC(=O)CCCC[C@@H]1SC[C@@H]2NC(=O)N[C@@H]21)C(C)C)C(=O)O [Peptide 1841] (Biotin-YGRKKRRQRRRARGDRKVPV-OH)
EC50 (ZO-1 d2): < 20 nM

CC(C)[C@H](NC(=O)[C@H](Cc1ccc(O)cc1)NC(=O)[C@H](Cc1ccc(O)cc1)NC(=O)[C@H](CCC(=O)O)NC(=O)[C@H](CCCCN)NC(=O)[C@H](CC(=O)O)NC(=O)[C@H](CCCCN)NC(=O)[C@H](CC(N)=O)NC(=O)[C@H](CCCCN)NC(=O)[C@H](CCCNC(=N)N)NC(=O)[C@H](CCCNC(=N)N)NC(=O)[C@H](CCCNC(=N)N)NC(=O)[C@H](CCC(N)=O)NC(=O)[C@H](CCCNC(=N)N)NC(=O)[C@H](CCCNC(=N)N)NC(=O)[C@H](CCCCN)NC(=O)[C@H](CCCCN)NC(=O)[C@H](CCCNC(=N)N)NC(=O)CNC(=O)[C@H](Cc1ccc(O)cc1)NC(=O)CCCC[C@@H]1SC[C@@H]2NC(=O)N[C@@H]21)C(=O)O [Peptide 1852] (Biotin-YGRKKRRQRRRKNKDKEYYV-OH)
EC50 (INADL d3): < 20 nM | EC50 (ZO-1 d2): < 20 nM

CC(C)[C@H](NC(=O)[C@H](Cc1c[nH]c2ccccc12)NC(=O)[C@@H](NC(=O)[C@H](CCC(=O)O)NC(=O)[C@H](CCCNC(=N)N)NC(=O)[C@H](CCCNC(=N)N)NC(=O)CNC(=O)[C@H](CCCNC(=N)N)NC(=O)[C@H](C)NC(=O)[C@H](CCCNC(=N)N)NC(=O)[C@H](CCCNC(=N)N)NC(=O)[C@H](CCCNC(=N)N)NC(=O)[C@H](CCC(N)=O)NC(=O)[C@H](CCCNC(=N)N)NC(=O)[C@H](CCCNC(=N)N)NC(=O)[C@H](CCCCN)NC(=O)[C@H](CCCCN)NC(=O)[C@H](CCCNC(=N)N)NC(=O)CNC(=O)[C@H](Cc1ccc(O)cc1)NC(=O)CCCC[C@@H]1SC[C@@H]2NC(=O)N[C@@H]21)[C@@H](C)O)C(=O)O [Peptide 1854] (Biotin-YGRKKRRQRRRARGRRETWV-OH)
EC50 (INADL d3): < 20 nM

CC[C@H](C)[C@H](NC(=O)[C@H](CO)NC(=O)[C@@H](NC(=O)[C@H](C)NC(=O)[C@H](C)NC(=O)[C@@H](NC(=O)[C@H](C)NC(=O)[C@H](CCCNC(=N)N)NC(=O)[C@H](CCCNC(=N)N)NC(=O)[C@H](CCCNC(=N)N)NC(=O)[C@H](CCC(N)=O)NC(=O)[C@H](CCCNC(=N)N)NC(=O)[C@H](CCCNC(=N)N)NC(=O)[C@H](CCCCN)NC(=O)[C@H](CCCCN)NC(=O)[C@H](CCCNC(=N)N)NC(=O)CNC(=O)[C@H](Cc1ccc(O)cc1)NC(=O)CCCC[C@@H]1SC[C@@H]2NC(=O)N[C@@H]21)C(C)C)[C@@H](C)O)C(=O)N[C@@H](CC(N)=O)C(=O)N[C@@H](CC(C)C)C(=O)O [Peptide 1791] (Biotin-YGRKKRRQRRRAVAATSINL-OH)
EC50 (ZO-1 d2): < 100 nM
